# In US20110028420A1, “Regression of Established Atherosclerotic Plaques, and Treating Sudden-Onset Asthma Attacks, using PARP Inhibitors” (priority 2008, published 2011):
# Marks after values point to notes of the source that are not given here.
# Legend:
# [1] = system: C57BL/6 ApoE−/− mice; test: Atherosclerotic plaque size and number in aortas of high-fat-diet-fed ApoE−/− mice (en face Oil-Red-O staining); type: in vivo
# Source text: C57BL/6 ApoE^−/− mice (Jackson Laboratory, Bar Harbor, Me.) were housed and bred in a pathogen-free animal care facility at LSUHSC (New Orleans, La.), and were given full access to laboratory rodent chow and water. Principles of laboratory animal care were followed (NIH publication No. 86-23, revised 1985). Experimental protocols were approved by the LSUHSC Animal Care and Use Committee. The animals were divided into six groups to provide proper controls, and to allow calculation of the significance of the results. All Groups were ApoE^−/− mice. The mice were fed a regular diet or a high fat diet for 12 or 16 weeks; in some cases mice that had been fed a high fat diet for 12 weeks were switched to a regular diet for the final 4 weeks (16 weeks total). Some mice were given injections of TIQ-A during the final four weeks, while others were injected with vehicle as controls:
# (§1) The high-fat diet (Harlan Teklad, Madison, Wis.) contained 21% fat by weight (0.15% cholesterol). The regular diet was normal laboratory rodent chow. Controls were given i.p. injections of vehicle three times per week, during the final four weeks. Experimental Groups received i.p. injections of the PARP inhibitor thieno[2,3-c]isoquinolin-5-one (TIQ-A) (Sigma-Aldrich, St Louis, Mo.) at the rate of 3 mg/kg, three times per week, during the last 4 weeks. At the conclusion of each protocol, the mice were fasted, anesthetized with ketamine/xylazine (60 and 3 mg/kg, respectively), and blood was drawn for serum preparation.
# Perfusion-fixed aortas were dissected and prepared either for en face, Oil-Red-O staining using standard protocols, or for embedding in paraffin. Tissues were sectioned and were stained following standard protocols with haematoxylin and eosin (H&E), trichrome staining, or immunohistochemistry (IHC). Lesion areas were assessed as described in K. Oumona-Benachour et al. (2007). IHC used antibodies against murine smooth muscle actin (SMA) (Santa Cruz Biotechnologies, Santa Cruz, Calif.), or antibodies against CD68. Immunoreactivity was assessed in captured images of immunostained stained sections as described in K. Oumona-Benachour et al. (2007).
# [2] = Fasted plasma cholesterol and LDL (Cholestech LDX); type: in vivo, mice; conditions: after overnight fasting; Group 6
# Protocol: as §1
# Plasma cholesterol and LDL were analyzed using a commercially available kit according to the manufacturer's instructions (Cholestech LDX, Hayward, Calif.).
# [3] = system: TNF; test: Quantitative RT-PCR of TNF; type: in vivo, mice; conditions: Group 6
# [4] = system: C57BL/6 mice; test: Eosinophil and inflammatory cell infiltration in lungs and BAL fluid of OVA-sensitized and challenged mice; type: in vivo
# Protocol: (§2) Mice were bred in a pathogen-free facility at the Louisiana State University Health Science Center (LSUHSC), New Orleans, La., and were given unlimited access to sterilized chow and water. Animal maintenance, experimental protocols, and procedures were approved by the LSUHSC Animal Care & Use Committee. C57BL/6 mice were purchased from Jackson Laboratories (Bar Harbor, Me.). Six-week old C57BL/6 mice (n z 5) were sensitized with two, 100 μg i.p. injections of Grade V chicken ovalbumin (OVA) (Sigma-Aldrich, St. Louis Mo.), mixed with 2 mg aluminum hydroxide in saline. The two injections were given seven days apart. One week after the second sensitization the mice were placed in a Plexiglas chamber and challenged with aerosolized ovalbumin (3% OVA in saline, generated by a Bennett nebulizer, DeVilbiss, Pa.). The challenged mice were held in the chamber with the aerosolized OVA for 30 min. Additional groups of mice were treated by the same protocol, except that they received 6 mg/kg TIQ-A (i.p.) 2 hours prior to challenge, 1 hour post-challenge, or 6 hours post-challenge with OVA. Control groups were neither sensitized, nor challenged. The mice used in each experiment were from the same litter or the same family. Mice were allowed to recover, and then killed by CO2 asphyxiation after 24 or 48 hours. The sacrificed mice were subjected to bronchio-alveolar lavage (BAL), or their lung tissues were dissected, fixed, and processed for histological analysis.
# A final volume of 5 ml saline was used in BAL to assess inflammatory cells (48 hours post OVA-challenge), or 1 ml saline was used to assess cytokines or IgE (24 hours post OVA-challenge). Formalin-fixed lungs were sectioned and subjected to haematoxylin and eosin (H&E), Periodic Acid-Schiff (PAS)-staining using standard protocols. Mucin was assessed essentially as described in L. Whittaker et al., Am. J. Respir. Cell. Mol. Biol., vol. 27, pp. 593-602 (2002). […] OVA-specific IgE was quantified by a sandwich ELISA (Serotec, Raleigh, N.C.) essentially as described in Oumona et al. (2006).
# [5] = system: IL-4, IL-5 and IL-13; test: Th2 cytokines in BAL fluid of OVA-challenged mice (Bio-Rad Bioplex); type: in vivo; conditions: BAL 24 hours after challenge; TIQ-A after versus before OVA challenge
# Protocol: Mice were bred in a pathogen-free facility at the Louisiana State University Health Science Center (LSUHSC), New Orleans, La., and were given unlimited access to sterilized chow and water. Animal maintenance, experimental protocols, and procedures were approved by the LSUHSC Animal Care & Use Committee. C57BL/6 mice were purchased from Jackson Laboratories (Bar Harbor, Me.). Six-week old C57BL/6 mice (n z 5) were sensitized with two, 100 μg i.p. injections of Grade V chicken ovalbumin (OVA) (Sigma-Aldrich, St. Louis Mo.), mixed with 2 mg aluminum hydroxide in saline. The two injections were given seven days apart. One week after the second sensitization the mice were placed in a Plexiglas chamber and challenged with aerosolized ovalbumin (3% OVA in saline, generated by a Bennett nebulizer, DeVilbiss, Pa.). The challenged mice were held in the chamber with the aerosolized OVA for 30 min. […]
# A final volume of 5 ml saline was used in BAL to assess inflammatory cells (48 hours post OVA-challenge), or 1 ml saline was used to assess cytokines or IgE (24 hours post OVA-challenge). […] Mucin was assessed essentially as described in L. Whittaker et al., Am. […] OVA-specific IgE was quantified by a sandwich ELISA (Serotec, Raleigh, N.C.) essentially as described in Oumona et al. (2006).
# [6] = system: C57BL/6 mice; test: Airway hyperresponsiveness: lung resistance to methacholine by forced oscillation; type: in vivo; conditions: TIQ-A post-OVA challenge; methacholine 50 mg/ml, 24 hours after OVA exposure
# Protocol: as §2, with “The mice used in each experiment were from the same litter or the same family. Mice were allowed to recover, and then killed by CO2 asphyxiation after 24 or 48 hours. The sacrificed mice were subjected to bronchio-alveolar lavage (BAL), or their lung tissues were dissected, fixed, and processed for histological analysis.” left out
# Twenty-four hours after OVA challenge lung resistance to increasing doses of methacholine (MeCh, Sigma; 0, 25, and 50 mg/ml in isotonic saline) was assessed by forced oscillation, essentially as described in D. You et al., Respir. […]
# [7] = Group 3: high fat diet for 16 weeks, TIQ-A 3 mg/kg i.p. three times per week during last 4 weeks
# [8] = Group 6: high fat diet for 12 weeks, then regular diet during last 4 weeks with TIQ-A 3 mg/kg i.p. three times per week
compound,measurement,setting,value
"O=C1N=C2SCC=C2c2ccccc21 [TIQ-A, thieno[2,3-c]isoquinolin-5-one]",Plaque Number (mean ± S.D.) Abdominal Aorta,[1]; [7],5.7 ± 0.94
same,Plaque Number (mean ± S.D.) Thoracic Aorta,[1]; [7],6.0 ± 1.53
same,Plaque size (median ± S.D.) Abdominal Aorta,[1]; [7],3.06 ± 0.66 mm^2
same,Plaque size (median ± S.D.) Thoracic Aorta,[1]; [7],7.18 ± 2.02* mm^2
same,Plaque number in the abdominal region (in words),[1]; Group 6,significant reduction in plaque number
same,"Regression of established plaques, thoracic and abdominal regions of the aorta",[1]; Group 6,statistically significant regression of established plaques
same,Plaque Number (mean ± S.D.) Abdominal Aorta,[1]; [8],4.0 ± 1.29
same,Plaque Number (mean ± S.D.) Thoracic Aorta,[1]; [8],4.20 ± 0.69
same,Plaque size (median ± S.D.) Abdominal Aorta,[1]; [8],1.96 ± 0.48 mm^2
same,Plaque size (median ± S.D.) Thoracic Aorta,[1]; [8],5.12 ± 1.68*‡† mm^2
same,Lesion size in the abdominal region (in words),"[1]; Group 6, difference not statistically significant",trended lower
same,LDL level,[2],significantly lowered
same,Total cholesterol level,[2],significantly lowered
same,TNF expression (quantitative RT-PCR),[3],significantly down-regulated
same,Eosinophil recruitment into lungs,[4]; TIQ-A 6 mg/kg i.p. prior to OVA-challenge,significantly suppressed
same,Number of eosinophils in BAL fluids,[4]; post-challenge administration compared with administration prior to challenge,substantially below that seen when the drug was administered prior to challenge
same,Infiltration of inflammatory cells into the airways,[4]; single TIQ-A i.p. injection one hour or six hours after challenge,greatly reduced
same,"Production of IL-4, IL-5 and IL-13 in BAL fluids",[5],more effectively suppressed by administering TIQ-A after the OVA challenge than before challenge
same,Airway hyperresponsiveness to inhaled methacholine,[6],almost completely blocked
